Measurements reported in patent US20220348590A1, “CYCLOOXYGENASE-2 INHIBITORS AND USES THEREOF” (The Board Institute, Inc., priority 2019, published 2022).
Read-outs that look alike come from different tables or passages of the source.

Molecular target: T1, human recombinant COX2 (hCOX2) (UniProt P35354)
T1 sequence (P35354 1-604): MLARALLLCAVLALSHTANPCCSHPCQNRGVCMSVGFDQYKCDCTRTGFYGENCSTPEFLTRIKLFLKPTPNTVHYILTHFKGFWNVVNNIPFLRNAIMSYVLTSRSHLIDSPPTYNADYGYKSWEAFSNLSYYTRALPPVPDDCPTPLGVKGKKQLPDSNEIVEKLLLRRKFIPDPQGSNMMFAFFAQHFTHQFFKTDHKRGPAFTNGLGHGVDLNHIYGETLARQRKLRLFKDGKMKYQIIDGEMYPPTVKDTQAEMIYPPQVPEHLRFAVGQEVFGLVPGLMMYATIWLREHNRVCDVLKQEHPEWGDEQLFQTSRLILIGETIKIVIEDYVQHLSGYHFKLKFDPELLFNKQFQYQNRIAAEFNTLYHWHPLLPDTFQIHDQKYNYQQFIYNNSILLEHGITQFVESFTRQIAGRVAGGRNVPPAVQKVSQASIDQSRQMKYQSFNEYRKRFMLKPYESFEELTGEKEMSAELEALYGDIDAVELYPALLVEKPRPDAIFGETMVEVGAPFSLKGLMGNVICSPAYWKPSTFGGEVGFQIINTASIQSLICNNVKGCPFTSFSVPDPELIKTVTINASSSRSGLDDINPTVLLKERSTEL
Test: LCMS-based COX2 enzymatic inhibition assay (PGE2 quantification)
Type: biochemical
Set-up: COX2 2 minutes pge2/pge2d4 area ratio Avg; other: 2 minutes; readout pge2/pge2d4 area ratio; average; COX2 2 minutes pge2/pge2d4 area ratio Avg; LLE; average LLE; COX2 2 minutes pge2 area (counts) Avg; readout pge2 area (counts); other: 2 min; "ovine COX2 (oCOX2), human recombinant COX2 (hCOX2)"
Conditions: for COX2 2 minutes pge2/pge2d4 area ratio Avg. LLE / COX2 2 minutes pge2 area (counts) Avg. LLE / COX2 10 minutes pge2 area (counts) Avg. LLE: average LLE; for IC50: average
Experimental: We have adapted a previously reported cyclooxygenase enzymatic assay utilizing LCMS quantification of PGE2 as the product of COX-1 and COX2 catalyzed conversion of arachidonic acid to evaluate the binding properties of newly synthesized ligands [Cao, 2011]. These optimized and miniaturized (384-well plates) LCMS-based COX-1 and COX2 enzymatic assays enabled us to quickly evaluate newly synthesized ligands for COX2 binding affinity and selectivity vs COX-1. Using a shorter ligand-enzyme incubation time in the LCMS assay (2 minutes vs 10 minutes) also permitted us to prioritize ligands with faster binding kinetics. Considering the relatively slow on-rate kinetics of known coxibs, due to their 3-step binding mechanism [Marnett, 2009], we believe that optimizing this critical parameter will be key to the successful development of a COX2 PET tracer. Using these enzymatic assays, we have evaluated>200 newly synthesized ligands against COX2 and >20 ligands against COX-1. Another critical property necessary for a good PET radiotracer is to have low non-specific binding (NSB) to increase the free fraction and maximize the signal to noise ratio. This property can be evaluated using in-vitro protein binding assays, and we have now evaluated>50 newly synthesized ligands in mouse, rat and human plasma protein binding (PPB) assays as well as >15 ligands in a mouse brain protein binding (BPB) assay.
Ovine COX-1 (oCOX-1), ovine COX2 (oCOX2), human recombinant COX2 (hCOX2), arachidonic acid, PGE2, d4-PGD2, and […] (labeled with deuterium atoms at positions 3 and 4) were purchased from Cayman Chemicals (Ann Arbor, Mich.). The cofactors (−)epinephrine and hematin, and the COX inhibitors indomethacin, resveratrol and diclofenac were purchased from Sigma-Aldrich (St. Louis, Mo.). Celecoxib was purchased from 3B PharmaChem International (Wuhan, China). All organic solvents were HPLC grade or better and were purchased from Thermo Fisher (Hanover Park, Ill.). Formic acid was purchased from EMD Chemicals (San Diego, Calif.). Purified water was prepared by using a Millipore Milli-Q purification system (Millipore, Billerica, Mass.). All other chemicals and solvents were ACS reagent grade, unless stated otherwise.
In an Eppendorf tube, 146 μL of 100 mM Tris.HCl (pH 8.0) buffer, 2 μL of 100 μM hematin (co-factor) and 10 μL of 40 mM L-epinephrine (co-factor) were mixed at room temperature. Next, 20 μL of Tris.HCl (pH 8.0) buffer containing 0.2 μg COX2 or 0.1 μg COX-1 (approximately 1 unit of enzyme; 1 unit COX utilizes 1 nmol 02/mg/min at 37° C.) was added, and the solution was incubated at room temperature for 2 min. A 2 μL aliquot of the COX inhibitor in DMSO was added to the enzyme solution and preincubated at 37° C. for 10 min. Negative controls were identical except that 2 μL aliquots of DMSO without inhibitor were used instead.
Each COX reaction was initiated by adding 20 μL of arachidonic acid in Tris.HCl (pH 8.0) buffer to give a final concentration of 5 μM; and the reaction was terminated after 2 min by adding 20 μL of 2.0 M HCl. The surrogate standards d4-PGE2 and d4-PGD2 (10 μL aliquot of 50 ng/mL solution in methanol) were added to correct for errors or degradation during sample handling and for variation in injection volume or instrument response during LC-MS-MS. After 30 min, PGE2, PGD2 and their surrogate standards were extracted from each incubation mixture using 800 μL hexane/ethyl acetate (50:50, v/v). The organic phase was removed, evaporated to dryness, and reconstituted in 100 μL methanol/water (50:50, v/v) for analysis using LC-MS-MS.
The concentration of PGE2 in each sample was measured using LC-MS-MS, and the percent of COX inhibition by each test solution was determined by comparing the amount of PGE2 produced in the experiment with that produced in the negative control incubation. The formation of PGD2 was measured for quality control purposes, since the levels of PGD2 should be proportional to those of PGE2. […]

[1] = 2 minutes, readout pge2/pge2d4 area ratio
[2] = 2 minutes, readout pge2/pge2d4 area ratio, read-out: COX2 2 minutes pge2/pge2d4 area ratio Avg. IC50
[3] = 2 minutes, readout pge2 area (counts)
[4] = 2 minutes, readout pge2 area (counts), read-out: COX2 2 minutes pge2 area (counts) Avg. IC50
[5] = 10 minutes, readout pge2 area (counts)
[6] = 10 minutes, readout pge2 area (counts), read-out: COX2 10 minutes pge2 area (counts) Avg. IC50
[7] = read-out: COX2 2 minutes pge2/pge2d4 area ratio Avg. IC50 (microM), 2 minutes, readout pge2/pge2d4 area ratio

Row | COX2 2 minutes pge2/pge2d4 area ratio Avg. LLE [1] | IC50 [2] | COX2 2 minutes pge2 area (counts) Avg. LLE [3] | IC50 [4] | COX2 10 minutes pge2 area (counts) Avg. LLE [5] | IC50 [6] | SMILES | IC50 [7]
1 | 3.528 | 0.711 µM | 3.498 | 0.774 µM | – | – | CS(=O)(=O)c1ccc(-c2cccc(C(=O)C(=O)c3cccs3)n2)cc1 [Compound 190] | –
2 | 3.18 | 1.43 µM | 3.779 | 1.23 µM | 3.305 | 1.64 µM | CS(=O)(=O)c1ccc(-c2cncc(Oc3ccc(F)cc3)n2)cc1 [Compound 211] | –
3 | 5.19 | 0.559 µM | 5.2357 | 0.525 µM | – | – | Cn1ccc(COc2cncc(-c3ccc(S(C)(=O)=O)cc3)n2)n1 [Compound 181] | –
4 | 2.95 | 4.84 µM | 2.934 | – | – | – | CS(=O)(=O)c1ccc(-c2cccc([S@@+]([O-])Cc3cccs3)n2)cc1 [Compound 266] | –
5 | 2.9422 | 1.47 µM | 2.889 | 1.66 µM | – | – | CS(=O)(=O)c1ccc(-c2cncc(OCc3ccc(Cl)o3)n2)cc1 [Compound 212] | –
6 | – | 0.0305 µM | – | 0.0265 µM | – | – | CS(=O)(=O)c1ccc(-c2coc3ccc(NCc4ccoc4)nc23)cc1 [Compound 55] | –
7 | 4.029 | 0.11 µM | 4.185 | 0.0615 µM | – | – | Cc1ccc(CNc2cccc(-c3ccc(S(C)(=O)=O)cc3)n2)o1 [Compound 117] | –
8 | 4.199 | 3.72 µM | 4.054 | – | – | – | CS(=O)(=O)c1ccc(-c2cncc(OC[C@H]3CCCO3)n2)cc1 [Compound 252] | –
9 | 2.595 | 0.411 µM | 2.638 | 0.368 µM | 3.534 | 0.0503 µM | CS(=O)(=O)c1ccc(-c2ncc3ncn(Cc4cccs4)c3n2)cc1 [Compound 164] | –
10 | – | – | – | – | – | – | CN1CCC(Nc2cncc(-c3ccc(S(C)(=O)=O)cc3)n2)CC1 [Compound 298] | 5.2 µM
11 | 4.502 | 0.0188 µM | 4.487 | 0.0207 µM | – | – | Cc1cocc1CNc1cccc(-c2ccc(S(C)(=O)=O)cc2)n1 [Compound 40] | –
12 | 2.264 | 5.2 µM | – | – | – | – | CS(=O)(=O)c1ccc(-c2cccc(C(=O)Nc3cccs3)n2)cc1 [Compound 281] | –
13 | 4.792 | 0.432 µM | 4.782 | 0.433 µM | – | – | CS(=O)(=O)c1ccc(-c2cncc(NC[C@@H]3CCCS3)n2)cc1 (single isomer, unassigned) [Compound 167] | –
14 | – | 0.629 µM | – | 0.635 µM | – | – | CS(=O)(=O)c1ccc(-n2ccc3ccc(/C(=N\O)c4cccs4)nc32)cc1 [Compound 187] | –
15 | – | – | – | – | – | – | CSc1ccc(-c2cccc(NCc3ccoc3)n2)cc1 [Compound 295] | 5.2 µM
16 | 4.384 | 0.0982 µM | 4.487 | 0.0793 µM | 5.297 | 0.0132 µM | C[C@H](Nc1cncc(-c2ccc(S(C)(=O)=O)cc2)n1)c1cccs1 [Compound 109] | –
17 | – | – | – | – | – | – | CS(=O)(=O)c1ccc(-c2cncc(N3CCc4ccccc4C3)n2)cc1 [Compound 324] | 5.2 µM
18 | 2.8258 | 0.212 µM | 2.75 | 0.311 µM | – | – | CS(=O)(=O)c1ccc(-c2nc(OCc3cccs3)cc3ncccc23)cc1 [Compound 140] | –
19 | – | – | – | – | – | – | CS(=O)(=O)c1ccc(-n2ccc3ccc(NC(=O)c4cccs4)nc32)cc1 [Compound 311] | 5.2 µM
20 | 4.192 | 0.0506 µM | 4.109 | 0.0596 µM | – | – | CS(=O)(=O)c1ccc(-c2cncc(NCc3cccs3)c2)cc1 [Compound 79] | –
21 | – | – | – | – | – | – | CS(=O)(=O)c1ccc(-c2ccnc(NCc3ccoc3)c2)cc1 [Compound 290] | 5.2 µM
22 | – | – | – | – | – | – | CS(=O)(=O)c1ccc(-c2cccc(NC(=O)c3cccs3)n2)cc1 [Compound 302] | 5.2 µM
23 | 3.43 | 0.0711 µM | 3.477 | 0.091 µM | – | – | CS(=O)(=O)c1ccc(-c2cccc(OCc3ccc(F)cc3)n2)cc1 [Compound 95] | –
24 | 1.819 | 3.36 µM | 1.724 | – | – | – | CS(=O)(=O)c1ccc(-c2cccc(/C=C/c3ccoc3)n2)cc1 [Compound 247] | –
25 | – | 3.01 µM | – | – | – | – | CS(=O)(=O)c1ccc(-c2cc(NCc3ccoc3)ccn2)cc1 [Compound 242] | –
26 | 5.231 | 0.0559 µM | 5.428 | 0.041 µM | – | – | COc1ncc(OCc2ccco2)nc1-c1ccc(S(C)(=O)=O)cc1 [Compound 81] | –

Row | SMILES | COX2 2 minutes pge2/pge2d4 area ratio Avg. LLE [1] | IC50 [2] | COX2 2 minutes pge2 area (counts) Avg. LLE [3] | IC50 [4] | COX2 10 minutes pge2 area (counts) Avg. LLE [5] | IC50 [6] | IC50 [7]
27 | CN(C)c1cncc(-c2ccc(S(C)(=O)=O)cc2)n1 [Compound 278] | 4.524 | – | 4.672 | 3.7 µM | 4.674 | 3.68 µM | 5.2 µM
28 | C[C@@H](Nc1cccc(-c2ccc(S(C)(=O)=O)cc2)n1)c1ccco1 (single isomer, unassigned) [Compound 274] | 1.914 | – | 1.914 | – | – | – | 5.2 µM
29 | Cc1ccc(COc2cncc(-c3ccc(S(C)(=O)=O)cc3)n2)cc1 [Compound 309] | – | – | 2.514 | – | – | – | 5.2 µM
